Literature values, collected in patent US20140056862A1, “NUTRITIONAL COMPOSITIONS HAVING ALPHA-HICA AND ALPHA-KETOGLUTARATE” (Nestec S.A., priority 2011, published 2014).

System: intestinal mammalian target of rapamycin (mTOR); intestinal villi and crypts
Settings: piglet stressed with LPS

Compound: O=C(O)CCC(=O)C(=O)O [AKG, α-ketoglutarate]
- crypt depth: reduced
- villous height: increased
- phosphorylation of intestinal mammalian target of rapamycin (mTOR) (leading to increased protein synthesis and anti-inflammatory responses): increased
